According to patent publication EP4818168A1, “FUSED RING COMPOUND, PHARMACEUTICAL COMPOSITION THEREOF AND USE THEREOF” (priority 2023, dated 2025):
Like-named read-outs stand apart in the source and are kept apart here.

Tests used:
H82 cells = test: cells; assay type: cell-based; settings: Homo sapiens
Description: CellTiter-Glo (CTG) is a rapid cell viability test method based on ATP detection. […] Adenosine triphosphate (ATP) participates in various enzymatic reactions in organisms and is an indicator of living cell metabolism. Its content directly reflects the number of living cells and cell status. During the experiment, equal volume of CTG reagent is added to the cultured cells to measure the luminescence value. The chemiluminescent signal value is proportional to the amount of ATP, thus reflecting the number of viable cells. Therefore, cell viability can be obtained by detecting the ATP content. Compounds that affect cell viability will inhibit cell viability in a concentration-dependent manner, allowing a curve to be fitted to obtain the IC50 value.
The experimental procedure is as follows: • 11. Place the cell suspension in a 15 mL centrifuge tube, centrifuge at 1000 rpm for 5 min at room temperature, discard the supernatant, and collect the cell pellet. • 12. Resuspend the cell pellet with preheated complete cell culture medium (RPMI1640+10%FBS+1%PS), and use a Countess® automated cell counter to detect cell viability and density. […] Transfer the compound solution to a 96-well plate seeded with cells (final concentration of DMSO 0.1%), and place in a cell incubator at 37°C, 5% CO2 for 6 days. • 15. […] Protect from light during the whole process. Perform optical signal readings using a SpectraMax i3x reader. • 16. Data analysis: Remaining activity (%) = 100% * (1 - ((LumDMSO - Lummedium) - Lumsample) / (LumDMSO - LumPBS/medium)). Use GraphPad Prism 9.0 software to draw an S-shaped dose-survival rate curve and calculate the IC50 value using a nonlinear regression model.

AURKA = molecular target: T1, AURKA (Homo sapiens, UniProt O14965); assay type: cell-based
T1 construct: endogenous in cells; host or cells: Jurkat cells
T1 sequence (O14965 1-403): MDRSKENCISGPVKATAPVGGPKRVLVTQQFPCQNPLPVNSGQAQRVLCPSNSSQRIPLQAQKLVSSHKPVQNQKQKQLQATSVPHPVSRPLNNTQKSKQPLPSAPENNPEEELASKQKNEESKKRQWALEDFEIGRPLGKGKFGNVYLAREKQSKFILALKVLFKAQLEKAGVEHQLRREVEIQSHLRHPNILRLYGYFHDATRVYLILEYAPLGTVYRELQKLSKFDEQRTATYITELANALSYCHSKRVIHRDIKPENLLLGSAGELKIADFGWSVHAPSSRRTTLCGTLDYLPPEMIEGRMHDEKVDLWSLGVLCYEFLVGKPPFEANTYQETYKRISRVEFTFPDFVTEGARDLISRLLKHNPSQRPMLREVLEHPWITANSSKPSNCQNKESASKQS
Method in brief: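 Jurkat cells seeded at 1×10^6 cells/500 µL and treated with compound; lysates run on SDS-PAGE, blotted to nitrocellulose and probed overnight at 4°C for AURKA. Chemiluminescent or fluorescent band intensity fitted to a curve to give DC50 for protein degradation.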

[1] = NCI-H82, H82 cells, 4000 cells/well, CellTiter-Glo, read-out: IC50 in H82 Cells
[2] = 100 nM compound, Jurkat cells, 24 h, Table 2
[3] = 1 µM compound, Jurkat cells, 24 h, Table 2
[4] = NCI-H82, read-out: IC50 in H82 Cells

Row | SMILES | IC50 (H82 cells; [1]) | Percentage of AURKA Degradation Induced by 100 nM Compound in Jurkat Cells (AURKA; [2]) | Percentage of AURKA Degradation Induced by 1 µM Compound in Jurkat Cells (AURKA; [3]) | IC50 (H82 cells; [4]) | Percentage of AURKA Degradation Induced by 100 nM Compound in Jurkat Cells (AURKA) | Percentage of AURKA Degradation Induced by 1 µM Compound in Jurkat Cells (AURKA)
1 | O=C1CCN(c2cccc(N3CCN(CCOc4cccc(Nc5ncc6c(n5)-c5ccc(Cl)cc5C(c5c(F)cccc5F)=NC6)c4)CC3)c2)C(=O)N1 [Compound A125] | < 1 µM | ++ (30% < Degradation ≤ 70%) | +++ (Degradation > 70%) | – | – | –
2 | O=C1CCN(c2cccc(C3CN(CC#Cc4cccc(Nc5ncc6c(n5)-c5ccc(Cl)cc5C(c5c(F)cccc5F)=NC6)c4)C3)c2)C(=O)N1 [Compound A126] | < 1 µM | + (Degradation ≤ 30%) | + (Degradation ≤ 30%) | – | – | –
3 | O=C1CCN(c2cccc(N3CCC(C#Cc4cccc(Nc5ncc6c(n5)-c5ccc(Cl)cc5C(c5c(F)cccc5F)=NC6)c4)CC3)c2)C(=O)N1 [Compound A127] | – | – | – | < 1 µM | +++ (key: +: Degradation ≤ 30%; ++: 30% < Degradation ≤ 70%; +++: Degradation > 70%) | +++ (key: +: Degradation ≤ 30%; ++: 30% < Degradation ≤ 70%; +++: Degradation > 70%)
4 | O=C1CCN(c2ccc(N3CCC4(CC3)CC(NC(=O)c3ccc(Nc5ncc6c(n5)-c5ccc(Cl)cc5C(c5ccccn5)=NC6)cc3)C4)nc2)C(=O)N1 [Compound A128] | < 1 µM | +++ (Degradation > 70%) | +++ (Degradation > 70%) | – | – | –
5 | Cc1c(N2CCN(CCC#Cc3cccc(Nc4ncc5c(n4)-c4ccc(Cl)cc4C(c4c(F)cccc4F)=NC5)c3)CC2)cccc1N1CCC(=O)NC1=O [Compound A129] | < 1 µM | +++ (Degradation > 70%) | +++ (Degradation > 70%) | – | – | –
6 | O=C1CCN(c2ccnc(N3CCN(CC#Cc4cccc(Nc5ncc6c(n5)-c5ccc(Cl)cc5C(c5c(F)cccc5F)=NC6)c4)CC3)c2)C(=O)N1 [Compound A130] | < 1 µM | ++ (30% < Degradation ≤ 70%) | ++ (30% < Degradation ≤ 70%) | – | – | –
7 | O=C1CCN(c2cncc(N3CCN(CC#Cc4cccc(Nc5ncc6c(n5)-c5ccc(Cl)cc5C(c5c(F)cccc5F)=NC6)c4)CC3)c2)C(=O)N1 [Compound A131] | < 1 µM | +++ (Degradation > 70%) | +++ (Degradation > 70%) | – | – | –
8 | O=C1CCN(c2ccc(N3CCC(N4CCN(c5ccc(Nc6ncc7c(n6)-c6ccc(Cl)cc6C(c6c(F)cccc6F)=NC7)cc5)C(=O)C4)CC3)nc2)C(=O)N1 [Compound A132] | – | – | – | < 1 µM | +++ (key: +: Degradation ≤ 30%; ++: 30% < Degradation ≤ 70%; +++: Degradation > 70%) | +++ (key: +: Degradation ≤ 30%; ++: 30% < Degradation ≤ 70%; +++: Degradation > 70%)
9 | O=C1CCN(c2cccc(N3CC(CC#Cc4cccc(Nc5ncc6c(n5)-c5ccc(Cl)cc5C(c5c(F)cccc5F)=NC6)c4)C3)c2)C(=O)N1 [Compound A133] | < 1 µM | ++ (30% < Degradation ≤ 70%) | +++ (Degradation > 70%) | – | – | –
10 | O=C1CCN(c2cnc(N3CCN(CCNC(=O)c4ccc(Nc5ncc6c(n5)-c5ccc(C7CC7)cc5C(c5c(F)cccc5F)=NC6)cc4)CC3)s2)C(=O)N1 [Compound A134] | < 1 µM | +++ (Degradation > 70%) | ++ (30% < Degradation ≤ 70%) | – | – | –
11 | CN(CCN1CCN(c2ncc(N3CCC(=O)NC3=O)s2)CC1)C(=O)c1ccc(Nc2ncc3c(n2)-c2ccc(C4CC4)cc2C(c2c(F)cccc2F)=NC3)cc1 [Compound A135] | < 1 µM | +++ (Degradation > 70%) | ++ (30% < Degradation ≤ 70%) | – | – | –
12 | CN(CCN1CCN(c2ccc(N3CCC(=O)NC3=O)cc2)CC1)C(=O)c1ccc(Nc2ncc3c(n2)-c2ccc(C4CC4)cc2C(c2c(F)cccc2F)=NC3)cc1 [Compound A136] | < 1 µM | +++ (Degradation > 70%) | +++ (Degradation > 70%) | – | – | –
13 | COc1ccccc1C1=NCc2cnc(Nc3ccc(C(=O)NC4CC5(CCN(c6ccc(N7CCC(=O)NC7=O)cn6)CC5)C4)cc3)nc2-c2ccncc21 [Compound A137] | < 1 µM | +++ (Degradation > 70%) | +++ (Degradation > 70%) | – | – | –
14 | O=C1CCN(c2ccc(N3CCC4(CC3)CC(NC(=O)c3ccc(Nc5ncc6c(n5)-c5ccncc5C(c5ccccc5F)=NC6)cc3)C4)nc2)C(=O)N1 [Compound A138] | 1 to 10 µM | +++ (Degradation > 70%) | +++ (Degradation > 70%) | – | – | –
15 | O=C1CCN(c2cccc(N3CC(CN4CCN(c5cccc(Nc6ncc7c(n6)-c6ccc(Cl)cc6C(c6c(F)cccc6F)=NC7)c5)CC4)C3)c2)C(=O)N1 [Compound A140] | < 1 µM | +++ (Degradation > 70%) | +++ (Degradation > 70%) | – | – | –
16 | O=C1CCN(c2cccc(N3CCN(CC4CN(c5cccc(Nc6ncc7c(n6)-c6ccc(Cl)cc6C(c6c(F)cccc6F)=NC7)c5)C4)CC3)c2)C(=O)N1 [Compound A141] | < 1 µM | +++ (Degradation > 70%) | +++ (Degradation > 70%) | – | – | –
17 | O=C1CCN(c2ccc(N3CCC4(CC3)CC(NC(=O)c3ccc(Nc5ncc6c(n5)-c5ccc(C7CC7)cc5C(c5ccccc5Cl)=NC6)cc3)C4)nc2)C(=O)N1 [Compound A142] | < 1 µM | +++ (Degradation > 70%) | +++ (Degradation > 70%) | – | – | –
18 | O=C1CCN(c2cccc(N3CCC(CN4CC(c5cccc(Nc6ncc7c(n6)-c6ccc(Cl)cc6C(c6c(F)cccc6F)=NC7)c5)C4)CC3)c2)C(=O)N1 [Compound A143] | < 1 µM | +++ (Degradation > 70%) | +++ (Degradation > 70%) | – | – | –
19 | O=C1CCN(c2cccc(C3CCN(CCOc4cccc(Nc5ncc6c(n5)-c5ccc(Cl)cc5C(c5c(F)cccc5F)=NC6)c4)C3)c2)C(=O)N1 (stereo not drawn) [Compound A144] | < 1 µM | + (Degradation ≤ 30%) | + (Degradation ≤ 30%) | – | – | –
20 | O=C1CCN(c2cccc(N3CCN(Cc4cccc(Nc5ncc6c(n5)-c5ccc(Cl)cc5C(c5c(F)cccc5F)=NC6)c4)CC3)c2)C(=O)N1 [Compound A146] | < 1 µM | ++ (30% < Degradation ≤ 70%) | + (Degradation ≤ 30%) | – | – | –
